Reference: ChEMBL document CHEMBL4725372, “Rational Design of Suprastat: A Novel Selective Histone Deacetylase 6 Inhibitor with the Ability to Potentiate Immunotherapy in Melanoma Models” (J Med Chem, 2020)
Active and inactive are the calls of the source. The rule behind the calls is not given here.

Columns and labels:
Mus musculus [1] = assay: Immunomodulatory activity in C57BL/6 mouse harboring mouse SM1 cells assessed as increase in CD8+ effector T-cells and effector memory cells at 25 mg/kg, ip dosed 5 days per week before starting 15 mg/kg, ip anti-PD1 immune checkpoint blockade therapy by flow cytometry; format: functional, organism-based; settings: time 5.0 day/week
[2] = target: T1, Protein deacetylase HDAC6 (Homo sapiens) (UniProt Q9UBN7); assay: Inhibition of human HDAC6 in human WM164 cells assessed as decrease in STAT3 Y705 phosphorylation at 5 uM pre-incubated before IL6 stimulation for 20 mins by immunoblot analysis; format: cell-based
T1 sequence (whole entry): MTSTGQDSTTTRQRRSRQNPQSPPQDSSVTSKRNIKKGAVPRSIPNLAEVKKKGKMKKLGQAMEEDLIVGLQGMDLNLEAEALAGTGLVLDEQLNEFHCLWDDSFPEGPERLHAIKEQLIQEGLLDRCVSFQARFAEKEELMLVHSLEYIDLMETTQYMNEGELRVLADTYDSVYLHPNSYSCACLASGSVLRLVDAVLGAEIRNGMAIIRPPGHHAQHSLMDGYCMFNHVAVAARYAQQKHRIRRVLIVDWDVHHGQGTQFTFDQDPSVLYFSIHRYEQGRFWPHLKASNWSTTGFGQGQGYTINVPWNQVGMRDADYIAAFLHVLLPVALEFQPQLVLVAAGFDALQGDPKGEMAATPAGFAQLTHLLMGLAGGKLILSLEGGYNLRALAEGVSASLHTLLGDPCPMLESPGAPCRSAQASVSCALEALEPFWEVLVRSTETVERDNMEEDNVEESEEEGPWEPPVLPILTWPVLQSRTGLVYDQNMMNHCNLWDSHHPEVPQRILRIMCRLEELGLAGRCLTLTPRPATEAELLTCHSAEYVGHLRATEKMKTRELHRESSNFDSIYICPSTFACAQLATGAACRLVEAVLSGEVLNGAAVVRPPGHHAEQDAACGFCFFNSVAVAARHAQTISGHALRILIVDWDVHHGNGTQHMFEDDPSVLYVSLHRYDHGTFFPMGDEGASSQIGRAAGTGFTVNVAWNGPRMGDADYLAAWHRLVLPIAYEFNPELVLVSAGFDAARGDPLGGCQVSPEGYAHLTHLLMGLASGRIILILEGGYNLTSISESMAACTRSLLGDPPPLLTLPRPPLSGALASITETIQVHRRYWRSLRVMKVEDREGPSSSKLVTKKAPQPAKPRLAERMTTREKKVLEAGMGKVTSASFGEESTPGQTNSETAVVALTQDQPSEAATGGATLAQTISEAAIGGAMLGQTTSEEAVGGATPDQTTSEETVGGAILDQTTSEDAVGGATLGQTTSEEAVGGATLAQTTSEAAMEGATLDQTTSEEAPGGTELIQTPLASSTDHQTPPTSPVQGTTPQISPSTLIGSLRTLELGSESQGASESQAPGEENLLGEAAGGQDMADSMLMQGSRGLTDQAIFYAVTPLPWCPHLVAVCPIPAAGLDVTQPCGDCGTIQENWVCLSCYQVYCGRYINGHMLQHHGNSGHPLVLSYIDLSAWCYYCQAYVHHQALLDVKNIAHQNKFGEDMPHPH

[3] = Protein binding in human plasma at 10 uM incubated for 1 hr by LC-MS/MS analysis; format: ADME, cell-free; settings: read-out: PPB (converted)
[4] = target: T2, Protein deacetylase HDAC6 (Mus musculus) (UniProt Q9Z2V5); assay: Inhibition of human HDAC6 in mouse RAW264.7 cells assessed as increase in acetylated alpha-tubulin levels at 1 to 10 uM by immunoblot analysis; format: cell-based; settings: Macrophage, dose microM 1-10
T2 sequence (whole entry): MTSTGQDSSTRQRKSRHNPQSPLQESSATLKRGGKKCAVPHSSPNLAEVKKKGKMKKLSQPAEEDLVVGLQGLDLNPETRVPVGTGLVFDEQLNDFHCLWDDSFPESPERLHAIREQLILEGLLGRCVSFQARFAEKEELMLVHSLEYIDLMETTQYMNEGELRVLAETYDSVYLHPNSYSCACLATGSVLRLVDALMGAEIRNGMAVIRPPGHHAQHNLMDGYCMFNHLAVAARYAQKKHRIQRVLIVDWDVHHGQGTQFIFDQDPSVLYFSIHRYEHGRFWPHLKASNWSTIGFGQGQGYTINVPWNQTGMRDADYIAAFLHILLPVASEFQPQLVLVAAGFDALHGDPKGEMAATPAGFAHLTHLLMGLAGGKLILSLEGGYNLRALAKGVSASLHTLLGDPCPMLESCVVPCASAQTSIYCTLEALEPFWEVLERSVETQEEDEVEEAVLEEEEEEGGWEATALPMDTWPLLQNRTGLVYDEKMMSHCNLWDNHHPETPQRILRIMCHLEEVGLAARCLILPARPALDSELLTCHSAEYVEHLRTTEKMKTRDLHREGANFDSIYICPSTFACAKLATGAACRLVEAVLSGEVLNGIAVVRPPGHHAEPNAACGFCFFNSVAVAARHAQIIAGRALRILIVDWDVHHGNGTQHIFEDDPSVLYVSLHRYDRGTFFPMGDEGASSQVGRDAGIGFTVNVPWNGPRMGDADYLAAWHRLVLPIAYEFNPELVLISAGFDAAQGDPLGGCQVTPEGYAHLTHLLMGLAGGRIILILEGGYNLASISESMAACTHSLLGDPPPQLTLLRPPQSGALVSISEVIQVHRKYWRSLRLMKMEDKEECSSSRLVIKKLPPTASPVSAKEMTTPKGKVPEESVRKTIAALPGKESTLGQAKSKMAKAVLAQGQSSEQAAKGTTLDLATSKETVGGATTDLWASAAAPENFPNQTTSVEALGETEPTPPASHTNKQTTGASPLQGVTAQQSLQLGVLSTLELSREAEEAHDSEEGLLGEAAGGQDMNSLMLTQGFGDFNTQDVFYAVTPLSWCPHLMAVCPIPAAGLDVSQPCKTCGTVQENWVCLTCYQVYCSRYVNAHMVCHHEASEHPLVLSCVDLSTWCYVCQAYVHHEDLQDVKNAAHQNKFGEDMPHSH

SM1 [5] = assay: Potentiation of antitumor immune response in C57BL/6 mouse harboring mouse SM1 cells assessed as decrease in tumor burden at 25 mg/kg, ip dosed 5 days per week before starting 15 mg/kg, ip anti-PD1 immune checkpoint blockade therapy measured on day 14; format: functional, organism-based; settings: time 14.0 day
SM1 [6] = assay: Antitumor activity against mouse SM1 cells transplanted in C57BL/6 mouse assessed as decrease in tumor burden at 25 mg/kg, ip dosed 5 days per week before starting 15 mg/kg, ip anti-PD1 immune checkpoint blockade therapy; format: functional, organism-based; settings: time 5.0 day/week
Mus musculus [7] = assay: Immunomodulatory activity in C57BL/6 mouse harboring mouse SM1 cells assessed as effect on CD4+ T cells at 25 mg/kg, ip dosed 5 days per week by flow cytometry; format: functional, organism-based; settings: time 5.0 day/week
[8] = Half life in rat liver microsome at 10 uM by LC-MS/MS analysis; format: ADME; settings: liver microsomes
HEK293 = assay: Selectivity index, ratio of IC50 for human HDAC6 expressed in HEK293/T17 cells (unknown origin) to human HDAC6 expressed in HEK293/T17 cells; format: cell-based

NCc1ccc(NC(=O)N(CCCCO)Cc2ccc(C(=O)NO)cc2)cc1
Activity (Mus musculus [1]): Active | inhibition [2]: Active | fraction unbound at 1 h, 10 µM [3]: 0.981 | inhibition [4]: Dose-dependent effect | TGI (SM1 [5]): Active | TGI (SM1 [6]): Active | Activity (Mus musculus [7]): inactive | half-life at 10 µM [8]: 2.95 h | Ratio IC50 (HEK293): 1
